From patent publication US9072709B2 (The Regents of the University of California, priority 2009, dated 2015)

B1: spp24: parental protein of BBP, secreted phosphoprotein, 24 kD (protein)
chain: FPVYDYDPASLKEALSASVAKVNSQSLSPYLFRAFRSSVKRVNALDEDSLTMDLEFRIQETTCRRESEADPATCDFQRGYHVPVAVCRSTVRMSAEQVQNVWVRCHWSSSSGSSSSEEMFFGDILGSSTSRNSYLLGLTPDRSRGEPLYEPSREMRRNFPLGNRRYSNPWPRARVNPGFE

How the values were obtained:
rmGDF-5 = target: T1, rmGDF-5 (Mus musculus, UniProt P43027); experiment: Surface plasmon resonance kinetic analysis (Biacore X), ligand rmGDF-5; format: binding
T1 construct: purchased R&D Systems, Minneapolis, Minn
T1 sequence (P43027 376-495): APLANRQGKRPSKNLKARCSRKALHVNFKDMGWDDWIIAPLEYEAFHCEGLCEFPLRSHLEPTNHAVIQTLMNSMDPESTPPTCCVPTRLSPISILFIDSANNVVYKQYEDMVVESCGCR
Procedure: The supernatant was decanted and used for analyses. […] Extinction coefficients were calculated using ProtParam tool (www.expasy.ch/tools/protparam.html). Flow rates ranged from 5 to 50 μl/min, and injection volumes were 20 to 100 μl. To ensure uniformity, an effort was made to react sufficient ligand to the chip to give a baseline value of about 2500 RU (response units).

Swiss-Weber mice = experiment: Mouse hindquarter (muscle pouch) ectopic bone formation assay, BBP alone or with rhBMP-2; format: in vivo; settings: for Bone Area / Bone Mineral Content: 21 days, mean SE
Procedure: The osteogenic activity of material was tested using male Swiss-Weber mice aged 8 to 10 weeks were used (Taconic Farms, Germantown, N.Y.). […] The dried material was placed in a #5 gelatin capsule and sterilized by exposure to chloroform vapor. To conduct the assay, mice were anesthetized using 1% isoflurane delivered in oxygen at 2 l/min through a small animal anesthesia machine (VetEquip, Pleasanton, Calif.). Animals were affixed to a surgery board and the fur over the hindquarters shaved. The skin was cleaned with 70% ethanol and a midline incision made over the spine adjacent to the hindquarters. Blunt dissection with scissors was used to expose the quadriceps muscle on one side. A small pouch was made in the muscle using the point of scissors and the #5 capsule containing the test material was inserted into the pouch. The skin was then closed with three 11 mm Michel surgical clips and the animal returned to its cage for monitoring.
After 21 days the animals were killed and the hindquarter removed. Radiological examination of the specimens was accomplished using a small parts X-Ray cabinet (Faxitron, Wheeling, Ill.). For quantization of bone formation, bone area and the bone mineral content (BMC) of an area of interest encompassing the site of ectopic bone formation was determined using a PIXImus2 small animal densitometer (GE Lunar, Madison, Wis.). Specimens were then placed in buffered formalin and submitted for routine processing for histological examination.

rhOP-1 (rhBMP-7) = target: T2, rhOP-1 (rhBMP-7) (Homo sapiens, UniProt P18075); experiment: Surface plasmon resonance kinetic analysis (Biacore X), ligand rhOP-1; format: binding; settings: ligand rhOP-1 (rhBMP-7)
T2 construct: purchased R&D Systems, Minneapolis, Minn
T2 sequence (P18075 293-431): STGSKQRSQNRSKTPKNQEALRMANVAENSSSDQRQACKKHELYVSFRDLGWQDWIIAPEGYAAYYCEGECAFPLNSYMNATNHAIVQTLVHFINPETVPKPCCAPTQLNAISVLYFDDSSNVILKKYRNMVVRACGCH
Procedure: (§1) The supernatant was decanted and used for analyses. Protein concentrations were determined suing UV spectroscopy at an absorbance of 280 nm. Extinction coefficients were calculated using ProtParam tool (www.expasy.ch/tools/protparam.html). Flow rates ranged from 5 to 50 μl/min, and injection volumes were 20 to 100 μl. To ensure uniformity, an effort was made to react sufficient ligand to the chip to give a baseline value of about 2500 RU (response units). The kinetic constants ka (on rate, association constant, “recognition”) and kd (off rate, dissociation constant, “stability”) as well as the equilibrium constant KD (equilibrium constant, “affinity”) were determined by a Langmuir analysis using BIAevaluation software (version 3.2) installed on the instrument by the manufacturer.

Lewis rats = experiment: Posterolateral intertransverse process spinal fusion at L4-L5 (radiographs, manual palpation, micro-CT); format: in vivo, rat; settings: ACS with 1000 μg BBP, no rhOP-1, 8 weeks
Text: A total of 120 male Lewis rats (8 weeks of age, 200-260 g, Charles River, Wilmington, Mass.) were divided into 8 groups. Groups differed only by the materials added to the ACS (5×5×13 mm) that were applied to the surgical sites. The preparation of the implants was previously described in detail. (Alanay, et al., The adjunctive effect of a binding peptide on bone morphogenetic protein enhanced bone healing in a rodent model of spinal fusion. Spine 2008; 33:1709-13). Implanted rhOP-1 was obtained from Stryker Biotech, Hopkinton, Mass. […] Animals were sacrificed 8 weeks after surgery with CO2.
Surgical Technique. Animals were anesthetized with 2-2.5% isoflurane administered in oxygen (1 L/min) and the surgical site was shaved and disinfected with alternative betadine and 70% alcohol. Animals were premedicated with 0.15 mg buprenorphine and postoperatively received tapered doses every 12 hours for 2 days. […]
Radiographic Analysis. […] Radiographs were evaluated by 3 independent observers employing the following standardized scale: 0: no fusion; 1: incomplete fusion with bone formation present; and 2: complete fusion. […]
Manual Assessment of Fusion. Eight weeks after surgery, the spines were removed and evaluated by three blinded independent observers for intersegmental motion. […] Spines were scored as either fused or not fused. […]

rhBMP-2 = target: T3, rhBMP-2 (Homo sapiens, UniProt P12643); experiment: Surface plasmon resonance kinetic analysis (Biacore X), ligand rhBMP-2; format: binding
T3 construct: purchased R&D Systems, Minneapolis, Minn
T3 sequence (P12643 283-396): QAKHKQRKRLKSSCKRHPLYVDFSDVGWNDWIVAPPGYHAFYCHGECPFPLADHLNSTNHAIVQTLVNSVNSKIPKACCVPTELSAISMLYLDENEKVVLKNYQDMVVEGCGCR
Procedure: as §1

rhTGF-β = experiment: Surface plasmon resonance kinetic analysis (Biacore X), ligand rhTGF-β; format: binding, human
Procedure: as §1

[1] = BBP 50 μg implanted with 5 μg of rhBMP-2, densitometry
[2] = BBP 500 μg implanted with 5 μg of rhBMP-2, densitometry

Molecule | kd “stability” (rmGDF-5) [s⁻¹] | amount of ectopic bone formed, measured by densitometry, versus identical amount of rhBMP-2 alone (Swiss-Weber mice; 500 μg of BBP implanted with 5 μg of rhBMP-2) | histological section of mouse muscle (Swiss-Weber mice; 500 μg of BBP in atelocollagen, 21 days after implantation, H & E stain) | calcification when implanted alone with carrier (radiogram) (Swiss-Weber mice; 500 μg of BBP in atelocollagen, mouse hind quarters, 21 days after implantation) | Bone Area (Swiss-Weber mice; [1]) [cm^2] | Bone Mineral Content (Swiss-Weber mice; [1]) [g] | Bone Area (Swiss-Weber mice; [2]) [cm^2] | Bone Mineral Content (Swiss-Weber mice; [2]) [g] | kd “stability” (rhOP-1 (rhBMP-7)) [s⁻¹] | ectopic calcification in BBP only treatment groups (Lewis rats) | induction of spinal fusion by BBP by itself (Lewis rats) | kd “stability” (rhBMP-2; ligand rhBMP-2) [s⁻¹] | ka “recognition” (rhTGF-β; ligand rhTGF-β) [M⁻¹ s⁻¹] | kd “stability” (rhTGF-β; ligand rhTGF-β) [s⁻¹] | KD (kd/ka) “affinity” (rhTGF-β; ligand rhTGF-β on CM-5 chip, Langmuir analysis) [nM] | ka “recognition” (rhBMP-2; ligand rhBMP-2) [M⁻¹ s⁻¹] | KD (kd/ka) “affinity” (rhBMP-2; ligand rhBMP-2 on CM-5 chip, Langmuir analysis) [nM]
CSCC[C@@H]1NC(=O)[C@H](CCCNC(=N)N)NC(=O)[C@H](C(C)C)NC(=O)[C@H]([C@@H](C)O)NC(=O)[C@H](CO)NC(=O)[C@H](CCCNC(=N)N)NC(=O)[C@@H](N)CSSC[C@@H](C(=O)O)NC(=O)[C@H](CCCNC(=N)N)NC(=O)[C@H](C(C)C)NC(=O)[C@H](Cc2c[nH]c3ccccc23)NC(=O)[C@H](C(C)C)NC(=O)[C@H](CC(N)=O)NC(=O)[C@H](CCC(N)=O)NC(=O)[C@H](C(C)C)NC(=O)[C@H](CCC(N)=O)NC(=O)[C@H](CCC(=O)O)NC(=O)[C@H](C)NC(=O)[C@H](CO)NC1=O [BBP] | 0.00352 | consistently greater | dystrophic calcification primarily associated with intramuscular adipose tissue | induced calcification | 0.159 ± 0.0606 | 0.00388 ± 0.0017 | 0.226 ± 0.0270 | 0.00528 ± 0.00068 | 0.00369 | Nor was ectopic calcification observed | did not induce any degree of fusion | 0.00169 | 27700 | 0.00175 | 68 | – | –
B1 | – | – | – | – | – | – | – | – | – | – | – | 0.0055 | – | – | – | 311000 | 17.7
